# From patent US4975434A, “Antiviral and anticancer cyclopentenyl cytosine” (priority 1989, dated 1990)
# “Also recorded” adds a separate entry of the source.
# Key:
# [1] = test system: malignant human promyelocytic leukemia cell line, HL-60; assay: Growth inhibition and differentiation of HL-60 cells (nitroblue tetrazolium reduction); type: cell-based
# [2] = test system: Rhinovirus 1A; assay: Antiviral activity against rhinovirus 1A; type: cell-based; details: result in words
# [3] = test system: CTP levels; assay: CTP levels in normal and tumor tissue of L1210 bearing mice; type: in vivo, mouse; details: normal vs tumor tissue of L1210 bearing mice
# [4] = test system: phosphorylation of uridine; assay: Inhibition of uridine phosphorylation
# [5] = test system: c-myc mRNA; assay: c-myc mRNA levels in HL-60 cells; type: cell-based, human
# [6] = test system: Yellow Fever virus, strain Asibi; assay: microbe, parasite or virus in culture; type: cell-based, Yellow Fever virus; host Vero cells
# [7] = test system: Varicella-Zoster virus, isolate DM625; assay: Varicella-Zoster Virus (VZV) Plaque Reduction Assay; type: cell-based
# [8] = test system: L1210 leukemia; assay: In vivo antitumor test, L1210 leukemia in mice; details: for Number of 60 day survivors per test group: QD1-9
# [9] = test system: A549 Lung; assay: Human tumor xenograft in athymic mice, A549 lung (subrenal capsule)
# [10] = IP L1210, IP treatment daily days 1-9, optimum dose 1 mg/kg/inj (Table I)
# [11] = IP L1210, IP treatment every 4th day, days 1, 5, 9, optimum dose 4 mg/kg/inj
# [12] = IP L1210, IP treatment every 3 hr x 8, days 1, 5, 9, optimum dose 0.5 mg/kg/inj
# [13] = Table II Experiment 1, tumor IP, IP QD1-9, OD 1.0 mg/kg/injection
# [14] = Table II Experiment 1, tumor IP, oral drug administration, OD 2.25 mg/kg/injection
# [15] = Table II Experiment 2, tumor IP, IP QD1-9, OD 1.0 mg/kg/injection
# [16] = Table II Experiment 2, tumor IP, oral drug administration, OD 2.25 mg/kg/injection
# [17] = Table II Experiment 2, tumor SC, IP QD1-9, OD 1.0 mg/kg/injection
smiles,measurement,setting,value
Nc1ccn([C@@H]2C=C(CO)[C@@H](O)[C@H]2O)c(=O)n1 [CPE-C],inhibition of cell growth,[1]; continuous exposure for 5 days to 10^-8 to 10^-6 M,progressive inhibition of cell growth
same,differentiation,"[1]; continuous exposure for 5 days to 10^-8 to 10^-6 M, general statement",differentiation to a non-malignant phenotype
same,cell population that reduced nitroblue tetrazolium,[1]; four days after exposure to 10^-7 M,95%
same,antiviral activity,[2],Activity was not seen
same,tissue specificity of CTP reduction,[3],some tissuespecificity towards the tumor
same,inhibition of phosphorylation of uridine,[4],inhibited competitively the phosphorylation of uridine
same,inhibition of c-myc mRNA levels,[5],more pronounced than the reduction in total cellular RNA synthesis; also recorded: reduction of c-myc RNA levels
same,VR (virus rating),"[6]; Vero cells, strain Asibi",0.9
same,IC50,"[6]; Yellow fever virus, Vero, read-out: ID50",5.05 µg/mL
same,TI (therapeutic index),"[6]; minimum toxic drug concentration / ID50, Vero cells",0.1
same,inhibition at 0.01 µg/mL,"[7]; Human alphaherpesvirus 3, 144 h, 0.01 μg/ml, Huf cells",0%
same,inhibition at 0.032 µg/mL,"[7]; Human alphaherpesvirus 3, 144 h, 0.032 μg/ml, Huf cells",3%
same,inhibition at 0.1 µg/mL,"[7]; Human alphaherpesvirus 3, 144 h, 0.1 μg/ml, Huf cells",21%
same,inhibition at 0.32 µg/mL,"[7]; Human alphaherpesvirus 3, 144 h, 0.32 μg/ml, Huf cells",33%
same,inhibition at 1 µg/mL,"[7]; Human alphaherpesvirus 3, 144 h, 1.0 μg/ml, Huf cells",36%
same,inhibition at 3.2 µg/mL,"[7]; Human alphaherpesvirus 3, 144 h, 3.2 μg/ml, Huf cells",33%
same,inhibition at 10 µg/mL,"[7]; Human alphaherpesvirus 3, 144 h, 10 μg/ml, Huf cells",33%
same,inhibition at 100 µg/mL,"[7]; Human alphaherpesvirus 3, 144 h, 100 μg/ml, Huf cells",41%
same,inhibition at 320 µg/mL,"[7]; Human alphaherpesvirus 3, 144 h, 320 μg/ml, Huf cells",36%
same,antiviral activity,[7]; result in words,Potent activity; also recorded: Activity was observed for both compounds
same,long term survivors,"[8]; IP 1.0 mg/kg, QD 1-9, 30-day, 1.5 mg/kg",Multiple 30-day survivors; also recorded: multiple long term survivors
same,ILS (median percent increase in life span),[8]; [10],124%
same,LCK (approximate log cell kill at the end of treatment),[8]; [10],3.0 log
same,ILS (median percent increase in life span),[8]; [11],91%
same,LCK (approximate log cell kill at the end of treatment),[8]; [11],0.1 log
same,ILS (median percent increase in life span),[8]; [12],116%
same,LCK (approximate log cell kill at the end of treatment),[8]; [12],1.5 log
same,schedule dependency,"[8]; QD 1-9, Q4D, Q3Hx8",no significant schedule dependency
same,% ILS,"[8]; Table II Experiment 1, tumor IC (intracerebral), IP QD1-9, OD 1.5 mg/kg/injection",45%
same,% ILS,[8]; [13],212%
same,LCK,[8]; [13],> 6.0 log
same,Number of 30 day survivors out of six mice,[8]; [13],4
same,% ILS,[8]; [14],125%
same,LCK,[8]; [14],1.9 log
same,% ILS,"[8]; Table II Experiment 1, tumor SC, IP QD1-9, OD 1.5 mg/kg/injection",109%
same,% ILS,"[8]; Table II Experiment 2, tumor IC (intracerebral), IP QD1-9, OD 1.0 mg/kg/injection",42%
same,% ILS,[8]; [15],201%
same,LCK,[8]; [15],> 5.8 log
same,Number of 30 day survivors out of six mice,[8]; [15],2
same,% ILS,[8]; [16],57%
same,LCK,[8]; [16],-2.2 log
same,% ILS,[8]; [17],83%
same,Number of 30 day survivors out of six mice,[8]; [17],1
same,Number of 60 day survivors per test group,"[8]; Table IV, CPE-C 1.0 mg/kg",1/10
same,% ILS,"[8]; Table IV, CPE-C 1.0 mg/kg, QD1-9, terminated day 60",116%
same,Number of 60 day survivors per test group,"[8]; Table IV, CPE-C 1.5 mg/kg",2/9
same,% ILS,"[8]; Table IV, CPE-C 1.5 mg/kg, QD1-9, terminated day 60",171%
same,% ILS,"[8]; Table IV, CPE-C 2.25 mg/kg, QD1-9, terminated day 60",146%
same,"potency relative to carbodine, in vivo antitumor",[8]; in vivo antitumor experiments,A similar potency difference
same,activity and potency relative to carbodine,[8]; initial in vivo tests,significantly greater levels of activity and potency than carbodine
same,ILS,"[8]; intracerebral L1210, text",about 40%
same,"activity, head to head comparison with 3DU",[8]; standard L1210 leukemia,significantly better
same,growth inhibition,[9],100%
same,Toxicity: weight loss and deaths,"[9]; A549 experiments 1 and 2, 1.5 and 2.0 mg/kg/injection, each group of six mice",weight loss and one or two deaths
same,% Tumor Inhibition (negative value denotes tumor regression),"[9]; Table III Experiment 1, SRC, IP QD1-9, OD 1.5 mg/kg/injection, day 0 to 11",-59%
same,% Tumor Inhibition,"[9]; Table III Experiment 2, SRC, IP QD1-9, OD 2.0 mg/kg/injection, day 0 to 11",92%
